Test results as given in ChEMBL document CHEMBL4402510, “Caprazamycins: Promising lead structures acting on a novel antibacterial target MraY” (Eur J Med Chem, 2019).
Converted amounts (≈) assume the structure as drawn.

Legend:
[1] = test system: Mycolicibacterium smegmatis; experiment: Antibacterial activity against Mycobacterium smegmatis; type: functional
[2] = test system: Mycobacterium tuberculosis; experiment: Antibacterial activity against Mycobacterium tuberculosis; type: functional
[3] = test system: Mycobacterium avium; experiment: Antibacterial activity against Mycobacterium avium; type: functional
[4] = test system: Mycobacterium intracellulare; experiment: Antibacterial activity against Mycobacterium intracellulare; type: functional
[5] = test system: Enterococcus faecalis; experiment: Antibacterial activity against t Enterococcus faecalis VRE after 20 hrs by NCCLS-based two-fold broth dilution method; type: functional; conditions: read-out: MIC
[6] = test system: Mycolicibacterium smegmatis; experiment: Antibacterial activity against Mycobacterium smegmatis after 20 hrs by NCCLS-based two-fold broth dilution method; type: functional
[7] = test system: Staphylococcus aureus; experiment: Antibacterial activity against Staphylococcus aureus after 20 hrs by NCCLS-based two-fold broth dilution method; type: functional
[8] = test system: Staphylococcus aureus; experiment: Antibacterial activity against multi drug resistance Staphylococcus aureus after 20 hrs by NCCLS-based two-fold broth dilution method; type: functional
[9] = test system: Staphylococcus aureus; experiment: Antibacterial activity against methicillin resistant Staphylococcus aureus after 20 hrs by NCCLS-based two-fold broth dilution method; type: functional; conditions: read-out: MIC
[10] = test system: Haemophilus influenzae; experiment: Antibacterial activity against Haemophilus influenzae after 20 hrs by NCCLS-based two-fold broth dilution method; type: functional
[11] = test system: Enterococcus faecalis; experiment: Antibacterial activity against t Enterococcus faecalis after 20 hrs by NCCLS-based two-fold broth dilution method; type: functional; conditions: read-out: MIC
[12] = test system: Staphylococcus aureus; experiment: Antibacterial activity against methicillin susceptible Staphylococcus aureus after 20 hrs by NCCLS-based two-fold broth dilution method; type: functional; conditions: read-out: MIC
[13] = test system: Enterococcus faecium; experiment: Antibacterial activity against t Enterococcus faecium after 20 hrs by NCCLS-based two-fold broth dilution method; type: functional
[14] = test system: Enterococcus faecium; experiment: Antibacterial activity against t Enterococcus faecium VRE after 20 hrs by NCCLS-based two-fold broth dilution method; type: functional; conditions: read-out: MIC
[15] = test system: Pseudomonas aeruginosa; experiment: Antibacterial activity against Pseudomonas aeruginosa after 20 hrs by NCCLS-based two-fold broth dilution method; type: functional
[16] = test system: Enterococcus faecium; experiment: Antibacterial activity against Enterococcus faecium ATCC 19434; type: functional
[17] = test system: Haemophilus influenzae; experiment: Antibacterial activity against Haemophilus influenzae ATCC 10211; type: functional
[18] = test system: Enterococcus faecalis; experiment: Antibacterial activity against Enterococcus faecalis ATCC 29212; type: functional
[19] = test system: Enterococcus faecalis; experiment: Antibacterial activity against Enterococcus faecalis SR7914 (VRE); type: functional
[20] = test system: Staphylococcus aureus; experiment: Antibacterial activity against methicillin susceptible Staphylococcus aureus ATCC 29213; type: functional
[21] = test system: Staphylococcus aureus; experiment: Antibacterial activity against methicillin resistant Staphylococcus aureus SR3637; type: functional
[22] = test system: Enterococcus faecium; experiment: Antibacterial activity against Enterococcus faecium SR7917 (VRE); type: functional
[23] = test system: Pseudomonas aeruginosa; experiment: Antibacterial activity against Pseudomonas aeruginosa YY165; type: functional
[24] = target: Phospho-N-acetylmuramoyl-pentapeptide-transferase (Escherichia coli, UniProt E2QF15); experiment: Inhibition of MraY in Escherichia coli
[25] = target: T1, Phospho-N-acetylmuramoyl-pentapeptide-transferase (Aquifex aeolicus (strain VF5), UniProt O66465); experiment: Inhibition of MraY in Aquifex aeolicus
T1 sequence (O66465 whole entry): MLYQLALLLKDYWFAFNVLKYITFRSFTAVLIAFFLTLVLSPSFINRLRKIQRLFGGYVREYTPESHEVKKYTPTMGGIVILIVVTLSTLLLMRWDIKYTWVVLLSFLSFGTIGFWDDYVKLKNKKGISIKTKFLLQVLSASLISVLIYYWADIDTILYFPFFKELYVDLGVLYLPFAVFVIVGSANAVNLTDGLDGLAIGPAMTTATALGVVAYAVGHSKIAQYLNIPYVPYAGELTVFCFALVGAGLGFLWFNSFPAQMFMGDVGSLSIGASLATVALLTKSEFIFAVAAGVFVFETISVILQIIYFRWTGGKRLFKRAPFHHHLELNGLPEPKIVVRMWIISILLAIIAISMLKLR

[26] = test system: Staphylococcus aureus; experiment: Antibacterial activity against methicillin resistant Staphylococcus aureus; type: functional, organism-based
[27] = test system: Escherichia coli; experiment: Antibacterial activity against Escherichia coli after 20 hrs by NCCLS-based two-fold broth dilution method; type: functional
[28] = test system: Streptococcus pneumoniae; experiment: Antibacterial activity against Streptococcus pneumoniae; type: functional
[29] = test system: Escherichia coli; experiment: Antibacterial activity against Escherichia coli ATCC 25922; type: functional
[30] = test system: Acinetobacter baumannii; experiment: Antibacterial activity against Acinetobacter baumannii ATCC 19606; type: functional; conditions: ATCC 19606 = CIP 70.34 = JCM 6841
[31] = test system: Pseudomonas aeruginosa; experiment: Antibacterial activity against Pseudomonas aeruginosa PAO1 deltamexB; type: functional

Sequence of Phospho-N-acetylmuramoyl-pentapeptide-transferase (Escherichia coli, UniProt E2QF15) (E2QF15 whole entry): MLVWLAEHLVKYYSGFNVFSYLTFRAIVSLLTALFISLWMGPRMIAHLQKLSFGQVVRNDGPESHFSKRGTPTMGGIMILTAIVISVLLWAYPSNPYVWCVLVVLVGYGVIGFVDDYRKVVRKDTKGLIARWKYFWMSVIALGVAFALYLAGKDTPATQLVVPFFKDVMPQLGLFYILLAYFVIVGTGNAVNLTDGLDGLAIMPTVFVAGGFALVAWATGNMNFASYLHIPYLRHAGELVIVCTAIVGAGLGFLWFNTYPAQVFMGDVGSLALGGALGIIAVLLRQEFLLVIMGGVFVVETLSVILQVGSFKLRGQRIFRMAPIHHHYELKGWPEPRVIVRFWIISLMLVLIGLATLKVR

In the case of CO[C@@H]1[C@@H](OC)[C@H](C)O[C@@H](OC(=O)C[C@@H](C)CC(=O)O[C@@H](CCCCCCCCC(C)C)CC(=O)O[C@H]2CN(C)[C@@H]([C@H](O[C@@H]3O[C@H](CN)[C@@H](O)[C@H]3O)[C@H]3O[C@@H](n4ccc(=O)[nH]c4=O)[C@H](O)[C@@H]3O)C(=O)N(C)[C@@H]2C(=O)O)[C@@H]1OC, the MIC [1] is reported as 0.78 to 1.56 µg/mL (≈ 0.698 to 1.4 µM), the MIC [2] is reported as 1.56 µg/mL (≈ 1.4 µM) and the MIC [3] is reported as 0.1 µg/mL (≈ 0.0894 µM). It also gave an MIC [4] of 1.56 µg/mL (≈ 1.4 µM).

In the case of CCCCCCCCCCCCCCCC(=O)O[C@H]1CN(C)[C@@H]([C@H](O[C@@H]2O[C@H](CN)[C@@H](O)[C@H]2O)[C@H]2O[C@@H](n3ccc(=O)[nH]c3=O)[C@H](O)[C@@H]2O)C(=O)N(C)[C@@H]1C(=O)O [PALMITOYL CAPRAZOL], the MIC [5] is reported as 12.5 µg/mL (≈ 15.4 µM), the MIC [6] is reported as 6.25 µg/mL (≈ 7.68 µM) and the MIC [7] is reported as 1.56 µg/mL (≈ 1.92 µM). The MIC [8] was 3.13 µg/mL (≈ 3.85 µM) and the MIC [9] was 6.25 µg/mL (≈ 7.68 µM).

For CCCCCCCCCCCCCC(=O)N[C@@H]1CCN[C@@H]([C@H](O[C@@H]2O[C@H](CN)[C@@H](O)[C@H]2O)[C@H]2O[C@@H](n3ccc(=O)[nH]c3=O)[C@H](O)[C@@H]2O)C1, the MIC [10] was 32 µg/mL (≈ 46.8 µM), the MIC [11] was 2 µg/mL (≈ 2.92 µM) and the MIC [5] was 2 µg/mL (≈ 2.92 µM). For the same compound, the MIC [9] was 32 µg/mL (≈ 46.8 µM), the MIC [12] was 16 µg/mL (≈ 23.4 µM) and the MIC [13] was 16 µg/mL (≈ 23.4 µM). The MIC [14] was 8 µg/mL (≈ 11.7 µM), the MIC [15] was 32 µg/mL (≈ 46.8 µM) and the MIC [16] was 16 µg/mL (≈ 23.4 µM). It also gave an MIC [17] of 32 µg/mL (≈ 46.8 µM), an MIC [18] of 2 µg/mL (≈ 2.92 µM) and an MIC [19] of 2 µg/mL (≈ 2.92 µM). For the same compound, the MIC [20] was 16 µg/mL (≈ 23.4 µM), the MIC [21] was 32 µg/mL (≈ 46.8 µM) and the MIC [22] was 8 µg/mL (≈ 11.7 µM). The MIC [23] was 32 µg/mL (≈ 46.8 µM).

NC[C@H]1O[C@@H](OC[C@H]2O[C@@H](n3ccc(=O)[nH]c3=O)[C@H](O)[C@@H]2O)[C@H](O)[C@@H]1O showed an IC50 [24] of 50 µM.

With NC[C@H]1O[C@@H](O[C@H]([C@H]2O[C@@H](n3ccc(=O)[nH]c3=O)[C@H](O)[C@@H]2O)n2cc(CCCCCCCCCCOc3ccc(C(=O)c4ccccc4)cc3)nn2)[C@H](O)[C@@H]1O the IC50 [25] was 25 µM and the MIC [26] was 8 µg/mL (≈ 10.3 µM).

Work on CCCCCCCCCCCCCCCC(=O)N[C@H]1CCN[C@H]([C@H](O[C@@H]2O[C@H](CN)[C@@H](O)[C@H]2O)[C@H]2O[C@@H](n3ccc(=O)[nH]c3=O)[C@H](O)[C@@H]2O)C1 yielded an MIC [10] of 32 µg/mL (≈ 45 µM), an MIC [11] of 8 µg/mL (≈ 11.2 µM) and an MIC [5] of 8 µg/mL (≈ 11.2 µM). For the same compound, the MIC [9] was 8 µg/mL (≈ 11.2 µM), the MIC [12] was 8 µg/mL (≈ 11.2 µM) and the MIC [13] was 8 µg/mL (≈ 11.2 µM). It also gave an MIC [14] of 4 µg/mL (≈ 5.62 µM), an MIC [27] of 16 µg/mL (≈ 22.5 µM) and an MIC [15] of 32 µg/mL (≈ 45 µM). It also gave an MIC [16] of 8 µg/mL (≈ 11.2 µM), an MIC [17] of 32 µg/mL (≈ 45 µM) and an MIC [18] of 8 µg/mL (≈ 11.2 µM). The MIC [19] was 8 µg/mL (≈ 11.2 µM), the MIC [20] was 8 µg/mL (≈ 11.2 µM) and the MIC [21] was 8 µg/mL (≈ 11.2 µM). The MIC [22] was 4 µg/mL (≈ 5.62 µM), the MIC [28] was over 64 µg/mL and the MIC [29] was 16 µg/mL (≈ 22.5 µM). It also gave an MIC [30] of over 64 µg/mL, an MIC [31] of over 64 µg/mL and an MIC [23] of 32 µg/mL (≈ 45 µM).

Work on CCCCCCCCCCC[C@@H](CC(=O)O[C@H]1CN(C)[C@@H]([C@H](O[C@@H]2O[C@H](CN)[C@@H](O)[C@H]2O)[C@H]2O[C@@H](n3ccc(=O)[nH]c3=O)[C@H](O)[C@@H]2O)C(=O)N(C)[C@@H]1C(=O)O)OC(=O)C[C@H](C)CC(=O)O[C@@H]1O[C@@H](C)[C@H](OC)[C@@H](OC)[C@H]1OC yielded an MIC [1] of 0.39 to 1.56 µg/mL (≈ 0.349 to 1.4 µM), an MIC [2] of 0.78 µg/mL (≈ 0.698 µM) and an MIC [3] of under 0.025 µg/mL. For the same compound, the MIC [4] was 0.78 µg/mL (≈ 0.698 µM).
